108 molecules from PubChem BioAssay AID2202554 (NIEHS Division of Translational Toxicology (DTT)) can be followed below.

Inconclusive results are not listed. Active and inactive are the calls of the source. The rule behind the calls is not given here.

In this data set the test system is S. typhimurium/E. coli reverse mutation, colony counts. Description: Bacterial reverse mutation test (aka Ames test) summary data. The essentials:
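Revertant colony counts on plates, compared with untreated controls, after about two days of growth. Exposure with or without liver S9 (rat/hamster/mouse), dose range per strain, 20-min 37° C preincubation or direct plate incorporation. Strains: his⁻ Salmonella, trp⁻ E. coli WP2 uvrA pKM101.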
For the molecule `Nc1ccccc1N`, the outcome was “active; positive”. To `ClC(Cl)(Cl)C(Cl)(Cl)Cl` belongs “inactive; negative”; to `NC(=O)NN=Cc1ccc([N+](=O)[O-])o1`, “active; positive”.

`COc1cc(C=O)ccc1O`: the outcome was “inactive; negative”. With `CCC(C)C`, the outcome is “inactive; negative”.

`COc1cc(Cc2cnc(N)nc2N)cc(OC)c1OC`: the outcome was “inactive; negative”. To `CCCCOCCOCCOCc1cc2c(cc1CCC)OCO2` belongs “inactive; negative”.

`Oc1cccc(O)c1O`: the outcome was “active; positive”. Next, `CC(C)[C@@H]1CC[C@@H](C)C[C@@H]1O`: “inactive; negative”; `CCCCNS(=O)(=O)c1ccccc1`: “inactive; negative”; `N[C@@H](CCC(=O)O)C(=O)O`: “inactive; negative”. Next, `O=[N+]([O-])c1ccc(Nc2ccc(Nc3ccccc3)c(S(=O)(=O)O)c2)c([N+](=O)[O-])c1`: “active; positive”. Turning to `Cc1nnc(NS(=O)(=O)c2ccc(N)cc2)s1`, the outcome was “inactive; negative”.

With `O=NN1CCOCC1`, the outcome was “active; positive”. Next, `ClC=C(Cl)Cl`: “inactive; negative”; `FCC1CO1` (stereo not drawn): “active; positive”; `CCCCOC(=O)COc1cc(Cl)c(Cl)cc1Cl`: “inactive; negative”. `CCCCC(C=O)CC` (stereo not drawn): the outcome was “inactive; negative”. With `NC(=Nc1ccccc1)Nc1ccccc1`, the outcome was “active; weakly positive”. To `O=C(O)C(Br)(Br)Br` belongs “active; positive”; to `CC(=O)C=Cc1ccc2c(c1)OCO2`, “inactive; negative”; to `ClC(Cl)=C(Cl)C(Cl)=C(Cl)Cl`, “inactive; negative”. To `COc1ccc(C(c2ccc(OC)cc2)C(Cl)(Cl)Cl)cc1` belongs “inactive; negative”; to `Cn1cnc2c1c(=O)[nH]c(=O)n2C`, “inactive; negative”.

Regarding `CC(COc1ccccc1)N(CCCl)Cc1ccccc1` (stereo not drawn), the outcome is “active; positive”.

For the molecule `OCCC(F)(F)C(F)(F)C(F)(F)C(F)(F)C(F)(F)C(F)(F)C(F)(F)C(F)(F)C(F)(F)C(F)(F)F`, the outcome was “inactive; negative”. Next, `CCN(CC)c1ccccc1`: “inactive; negative”; `N=C1C=CC(=C(c2ccc(N)cc2)c2ccc(N)cc2)C=C1`: “active; positive”.

Turning to `CC(C)C#N`, the outcome was “inactive; negative”. Take `C1=CCCC=CCC1.C1=CCCC=CCC1.[Ni]`: the outcome was “active; positive”. Next, `Cc1c(N=C=O)cccc1N=C=O`: “active; positive”; `NC(=O)c1ncn([C@@H]2O[C@H](CO)[C@@H](O)[C@H]2O)n1`: “inactive; negative”. Next, `CCCCC(CC)COC(=O)c1cccc(C(=O)OCC(CC)CCCC)c1` (stereo not drawn): “inactive; negative”; `CCCC(=O)Cl`: “active; weakly positive”; `C[C@]12CCC(=O)C=C1CC[C@@H]1[C@@H]2CC[C@]2(C)C(=O)CC[C@@H]12`: “inactive; negative”. For the molecule `OC[C@@]1(O)CO[C@](O)(CO)CO1`, the outcome was “active; positive”. As to `Brc1cccc(-c2ccccc2)c1`, the outcome was “inactive; negative”. As for `CCCC=C(C=O)CC`, the outcome is “inactive; negative”. Next, `Oc1ccc(Cl)c(Cl)c1Cl`: “inactive; negative”.

For `CCOP(=S)(OCC)Oc1nc(Cl)c(Cl)cc1Cl`, the outcome is “inactive; negative”.

Regarding `Cc1ccccc1Br`, the outcome is “inactive; negative”. Next, `COc1ccc(CN(CCN(C)C)c2ccccn2)cc1`: “inactive; negative”; `O=C1C2(Cl)C3(Cl)C4(Cl)C(Cl)(Cl)C5(Cl)C3(Cl)C1(Cl)C5(Cl)C24Cl` (stereo not drawn): “inactive; negative”; `CCCCCCCCCCCCCCCCCC(=O)O`: “inactive; negative”. Next, `Nc1ccc([N+](=O)[O-])c(N)c1`: “active; positive”.

`CC[N+](=O)[O-]`: the outcome was “inactive; negative”.

Regarding `CCCCCCCCCCCCOS(=O)(=O)O`, the outcome was “inactive; negative”. Next, `O=c1[nH]cc(F)c(=O)[nH]1`: “inactive; negative”; `Cc1ccc(N=C=O)cc1N=C=O`: “active; positive”. To `CC(C)(Cl)Cl` belongs “inactive; negative”; to `O=C(O)C(F)(F)C(F)(F)C(F)(F)C(F)(F)C(F)(F)F`, “inactive; negative”; to `O=C1Nc2ccc(S(=O)(=O)O)cc2C1=O`, “active; positive”. Next, `FC(F)(F)c1ccccc1`: “inactive; negative”. With `C=C(Cl)C(=O)OC`, the outcome was “active; positive”. Next, `Clc1c(Cl)c(Cl)c2c(Cl)c(Cl)c(Cl)c(Cl)c2c1Cl`: “inactive; negative”; `Oc1cccc(Nc2ccccc2)c1`: “inactive; negative”; `CCS(=O)CCSP(=O)(OC)OC` (stereo not drawn): “active; positive”. Consider `O=C(Nc1ccc(Cl)cc1)Nc1ccc(Cl)c(Cl)c1`, for which the outcome was “inactive; negative”. Turning to `CN(C)c1ccc(C2(c3ccc(N(C)C)cc3)OC(=O)c3cc(N(C)C)ccc32)cc1`, the outcome is “inactive; negative”. Next, `Nc1nc2ccc([N+](=O)[O-])cc2s1`: “active; positive”; `OCc1ccccc1`: “inactive; negative”; `Oc1c(Cl)ccc(Cl)c1Cl`: “inactive; negative”.

For the molecule `O=C(O)c1ccc(Cl)cc1Cl`, the outcome is “inactive; negative”.

As for `O=C1OC2(c3ccccc31)c1cc(Br)c(O)c(Br)c1Oc1c2cc(Br)c(O)c1Br`, the outcome was “active; positive”. Next, `C=CC(=O)OCCCCCCOC(=O)C=C`: “inactive; negative”; `CC(C)=CCC/C(C)=C/CC/C(C)=C/CC/C=C(\C)CC/C=C(\C)CCC=C(C)C`: “inactive; negative”. Next, `CC(O)COc1ccccc1` (stereo not drawn): “inactive; negative”; `CC(C)(C)c1ccc(OCC2CO2)cc1` (stereo not drawn): “active; positive”. Regarding `[O]=[V]([OH])([OH])[OH]`, the outcome is “inactive; negative”. To `Nc1c(S(=O)(=O)O)cc(Nc2cccc(S(=O)(=O)CCOS(=O)(=O)O)c2)c2c1C(=O)c1ccccc1C2=O` belongs “active; positive”; to `CCCC(C)(COC(N)=O)COC(=O)NC(C)C` (stereo not drawn), “inactive; negative”; to `Nc1ccc(Cc2ccc(N)cc2)cc1`, “active; positive”. For `COS(C)(=O)=O`, the outcome is “active; positive”. Next, `COP(=S)(OC)SCn1nnc2ccccc2c1=O`: “active; positive”. Next, `BrC/C=C/CBr`: “active; positive”; `O=C1CCc2ccccc2O1`: “inactive; negative”. To `OCC(Cl)CCl` (stereo not drawn) belongs “active; positive”; to `BrCC1CO1` (stereo not drawn), “active; positive”; to `O=c1ccc(O)n[nH]1`, “active; weakly positive”. Consider `Oc1cc(Cl)c(Cl)c(Cl)c1Cl`, for which the outcome is “inactive; negative”.

Turning to `OCC=CCO`, the outcome was “active; positive”.

In the case of `Clc1cccc2ccccc12`, the outcome was “active; weakly positive”. Consider `OC(c1ccc(Cl)cc1)(c1ccc(Cl)cc1)c1ccc(Cl)cc1`, for which the outcome is “inactive; negative”.

With `C=Cc1ccccc1Cl`, the outcome is “inactive; negative”. Next, `COc1ccc(C2=N[C@H](c3ccc(Cl)cc3)[C@H](c3ccc(Cl)cc3)N2C(=O)N2CCNC(=O)C2)c(OC(C)C)c1`: “inactive; negative”; `CN(C)P(=O)(N(C)C)N(C)C`: “inactive; negative”; `CCOP(=S)(OCC)OP(=S)(OCC)OCC`: “active; positive”. Next, `COc1ccc(C(=O)c2ccccc2)c(O)c1`: “active; weakly positive”; `CC1(C)[C@@H]2CC[C@@]1(C)C(=O)C2`: “inactive; negative”. In the case of `O=C(O)c1cc(O)c2c(c1)[C@@H]([C@H]1c3cc(C(=O)O)cc(O)c3C(=O)c3c(O[C@@H]4O[C@H](CO)[C@@H](O)[C@H](O)[C@H]4O)cccc31)c1cccc(O[C@@H]3O[C@H](CO)[C@@H](O)[C@H](O)[C@H]3O)c1C2=O`, the outcome was “inactive; negative”. To `CC1=NN(c2ccccc2)C(=O)C1` belongs “inactive; negative”; to `CCOP(=S)(OCC)SC1OCCOC1SP(=S)(OCC)OCC` (stereo not drawn), “active; positive”. Next, `c1ccc2[nH]cnc2c1`: “inactive; negative”; `C[Si](C)(C)Cl`: “active; weakly positive”. Next, `COCOC`: “inactive; negative”; `O=c1c(-c2ccc(O)cc2)coc2cc(O)cc(O)c12`: “active; positive”. For `CC(Cl)(Cl)Cl`, the outcome is “inactive; negative”. Next, `CCCCOCCOCCSC#N`: “inactive; negative”. Next, `O=CNc1ccccc1`: “inactive; negative”; `COC(=O)c1ccccc1N`: “inactive; negative”.

Take `Cc1c(O)cccc1O`: the outcome is “inactive; negative”. Next, `NC(=O)Nc1nc2ccccc2[nH]1`: “active; positive”; `CCCCN1CCCCC1C(=O)Nc1c(C)cccc1C` (stereo not drawn): “inactive; negative”. Next, `C1COCOC1`: “active; weakly positive”; `O=C1O[C@H](CO)[C@@H](O)[C@H](O)[C@H]1O`: “inactive; negative”; `C=CC`: “active; positive”. Next, `CCCSC(=O)Cl`: “active; positive”.

On to `COc1cc(/C=C/C(=O)CC(=O)/C=C/c2ccc(O)c(OC)c2)ccc1O`, for which the outcome was “inactive; negative”.
